The supplement of paper PMC10307832

Assays:
Assay in all cases: relative viability (nuclei count vs DMSO), 5 days (fraction); higher = more cells survive
[1] = test system: NCI-H1563
How it was run: (§1)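 Dosing by pin tool came one day after lung cancer cell lines were seeded in 1536-well plates, using either one drug or a fixed anchor-drug dose plus five library-drug doses (not always all listed) in √10 steps. After 5 days, nuclei were counted on 4× images. Relative viability is treated-well nuclei count divided by vehicle-well nuclei count, and values are medians of duplicate plates.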

[2] = test system: NCI-H2087
How it was run: as §1

[3] = test system: HCC-827
How it was run: as §1

[4] = test system: COR-L23
How it was run: as §1

[5] = test system: HCC-44
How it was run: as §1

[6] = test system: SK-MES-1
How it was run: as §1

[7] = test system: EMC-BAC-2
How it was run: as §1

[8] = test system: NCI-H1944
How it was run: as §1

[9] = test system: NCI-H520
How it was run: as §1

[10] = test system: NCI-H1651
How it was run: as §1

[11] = test system: H3255
How it was run: as §1

## CC(=O)O[C@@]12CO[C@@H]1C[C@H](O)[C@@]1(C)C(=O)[C@H](O)C3=C(C)[C@@H](OC(=O)[C@H](O)[C@@H](NC(=O)OC(C)(C)C)c4ccccc4)C[C@@](O)([C@@H](OC(=O)c4ccccc4)[C@H]21)C3(C)C [Docetaxel] + Cc1nc(NC(=O)N2CCC[C@H]2C(N)=O)sc1-c1ccnc(C(C)(C)C(F)(F)F)c1 [Alpelisib] (partner 2 µM)
[1]; first compound 0.002 µM
  relative viability: 0.809
[1]; first compound 0.006325 µM
  relative viability: 0.807
[1]; first compound 0.02 µM
  relative viability: 0.55
[2]; first compound 0.0002 µM
  relative viability: 0.916
[2]; first compound 0.000632 µM
  relative viability: 0.753
[2]; first compound 0.002 µM
  relative viability: 0.253
[2]; first compound 0.006325 µM
  relative viability: 0.193
[2]; first compound 0.02 µM
  relative viability: 0.15
[3]; first compound 0.0002 µM
  relative viability: 0.981
[3]; first compound 0.000632 µM
  relative viability: 0.992
[3]; first compound 0.002 µM
  relative viability: 0.706
[3]; first compound 0.006325 µM
  relative viability: 0.288
[3]; first compound 0.02 µM
  relative viability: 0.282
[4]; first compound 0.0002 µM
  relative viability: 0.65
[4]; first compound 0.000632 µM
  relative viability: 0.718
[4]; first compound 0.002 µM
  relative viability: 0.261
[4]; first compound 0.006325 µM
  relative viability: 0.0995
[4]; first compound 0.02 µM
  relative viability: 0.0707
[5]; first compound 0.0002 µM
  relative viability: 0.758
[5]; first compound 0.000632 µM
  relative viability: 0.711
[5]; first compound 0.002 µM
  relative viability: 0.609
[5]; first compound 0.006325 µM
  relative viability: 0.149
[5]; first compound 0.02 µM
  relative viability: 0.0751
[6]; first compound 0.0002 µM
  relative viability: 0.932
[6]; first compound 0.000632 µM
  relative viability: 0.892
[6]; first compound 0.002 µM
  relative viability: 0.484
[6]; first compound 0.006325 µM
  relative viability: 0.224
[6]; first compound 0.02 µM
  relative viability: 0.104
[7]; first compound 0.0002 µM
  relative viability: 0.694
[7]; first compound 0.000632 µM
  relative viability: 0.626
[7]; first compound 0.002 µM
  relative viability: 0.385
[7]; first compound 0.006325 µM
  relative viability: 0.246
[7]; first compound 0.02 µM
  relative viability: 0.154
[8]; first compound 0.0002 µM
  relative viability: 0.751
[8]; first compound 0.000632 µM
  relative viability: 0.761
[8]; first compound 0.002 µM
  relative viability: 0.728
[8]; first compound 0.006325 µM
  relative viability: 0.259
[8]; first compound 0.02 µM
  relative viability: 0.122
[9]; first compound 0.0002 µM
  relative viability: 0.786
[9]; first compound 0.000632 µM
  relative viability: 0.95
[9]; first compound 0.002 µM
  relative viability: 0.287
[9]; first compound 0.006325 µM
  relative viability: 0.152
[9]; first compound 0.02 µM
  relative viability: 0.13
[10]; first compound 0.0002 µM
  relative viability: 0.811
[10]; first compound 0.000632 µM
  relative viability: 0.944
[10]; first compound 0.002 µM
  relative viability: 0.248
[10]; first compound 0.006325 µM
  relative viability: 0.108
[10]; first compound 0.02 µM
  relative viability: 0.111
[11]; first compound 0.0002 µM
  relative viability: 0.572
[11]; first compound 0.000632 µM
  relative viability: 0.722
[11]; first compound 0.002 µM
  relative viability: 0.348
[11]; first compound 0.006325 µM
  relative viability: 0.251
